Values joined by “and” are separate entries in the source; they are usually repeats but may differ in a detail not shown here. Equal entries are not always repeated. Structures can show the parent of a compound that is named as a salt.
Legend:
[1] = test system: MCF-7-ADR; assay: MTT cytotoxic activity against drug-resistant tumor cell line; type: cell-based, Human; conditions: for IC50: NCI/ADR-RES, doxorubicin-resistant human breast cancer cells, 48 hours incubation, MTT, Bliss method
Description: Purpose: Compare differences of cytotoxic activity against drug-resistant tumor cell lines between gemcitabine derivatives (Compounds of examples 1-9 of the present invention) and gemcitabine (known compound, as “comparative example” in the table below).
Materials and Methods: Human breast cancer doxorubicin-resistant cell line MCF-7-ADR was cultured in 1640 medium containing 5% fetal calf serum; gemcitabine and its derivative GI-06 were dissolved in DMSO, frozen preserved at −20° C., and diluted by 1640 medium containing 5% fetal calf serum to the appropriate concentration before they were used. The final concentration of DMSO solution was 0.5%. Activity tests: MCF-7-ADR cells in the logarithmic growth phase were seeded 3×10^3 per well in 96-well culture plates. The medium was changed after incubating for 24 hours by adding test solutions at different concentrations, while the control group was added DMSO medium with concentration of 0.5%, and the cells continued to be incubated for 48 hours. Then the cell activity was assayed by MTT. Inhibition rate (%)=([…](absorbance of the blank control group−absorbance of the administration group)/absorbance of the blank control group)×100%; IC50: calculated by Bliss method.

[2] = test system: HCT-116 colon cancer; assay: Growth of subcutaneous transplanted tumor in nude mice bearing HCT-116 colon cancer
Description: Purpose: 4 compounds' influence to the growth of subcutaneous transplanted tumor in nude mice bearing HCT-116 colon cancer
Positive control: Gemcitabine hydrochloride.
Experimental animals: Nude mice, female, 4-5 weeks old, 60 cases.
Cell lines: HCT-116 colon cancer cell.
Modeling: Five mice were inoculated by cell suspension before the experiment, after passaging 4 times in nude mice, prepared model by subcutaneous inoculation using the interpolation block tumor masses.
Route of administration: Gemcitabine hydrochloride group was adminstered by intraperitoneal injection, the rest groups were adminstered by oral gavage.
The adminstered volume: 0.1 ml/10 g
Observation time: Consecutive observation for 15 days after administration, tumor volume was measured twice a week. Stop administration at the 15th day.

[3] = test system: A2780 ovarian cancer; assay: Growth of subcutaneous transplanted tumor in nude mice bearing A2780 ovarian cancer
Excerpt: Test sample: GI-06; Positive control: gemcitabine hydrochloride
Experimental animals: nude mice, female, 4-5 weeks old, 40 cases.
Cell lines: A2780 ovarian cancer cell, purchased from Shanghai institute of cell biology.
Grouping: When tumor volume grew to 100 mm^3, nude mice which reached standard were randomly divided into five groups, namely solvent control group, gemcitabine hydrochloride group, GI-06 high, medium, low dosage groups, 6 nude mice in each group.
The administration volume: 0.1 ml/10 g
Frequency of administration: Gemcitabine hydrochloride was respectively adminstered twice in the first and third week (D1, D4, D15, D18), 4 times in total; Each GI-06 dosage group was adminstered once a day, 21 days in total.
Animals were sacrificed on the 22nd day, the tumors were weighed.
Statistical Methods: Excel statistical software package, ANOVA analysis.

[4] = 15 mg/kg oral gavage, five consecutive days a week, 10 times in total
[5] = high dosage 12 mg/kg oral gavage once a day, 21 days
[6] = low dosage 4 mg/kg oral gavage once a day, 21 days
[7] = medium dosage 8 mg/kg oral gavage once a day, 21 days
[8] = low dosage 5 mg/kg oral gavage, 12 times in total
[9] = medium dosage 10 mg/kg oral gavage, 12 times in total
[10] = 160 mg/kg intraperitoneal injection, D1, D4, D15, D18
[11] = 160 mg/kg intraperitoneal injection, D1 and D4, twice in total

Structure (SMILES)	IC50 [1] [µM]	T/C (%) D15 [2, 4]	Tumor volume (mm^3) D15 [2, 4]	Weight (g) D15 [2, 4] [g]	also measured
CC(C)(C)c1cnc(CSc2cnc(NC(=O)C(=O)Nc3ccn([C@@H]4O[C@H](CO)[C@@H](O)C4(F)F)c(=O)n3)s2)o1 [GI-01, N-(5-(((5-(t-butyl)oxazol-2-yl)methyl)thio)thiazol-2-yl)-N′-(1-((2R,4R,5R)-3,3-difluoro-4-hydroxy-5-(hydroxymethyl)tetrahydrofuran-2-yl)-2-oxo-1,2-dihydro-pyrimidin-4-yl)oxamide]	5.56				
CC(C)(C)c1cnc(CSc2cnc(NC(=O)CC(=O)Nc3ccn([C@@H]4O[C@H](CO)[C@@H](O)C4(F)F)c(=O)n3)s2)o1 [GI-02, N-(5-(((5-(t-butyl)oxazol-2-yl)methyl)thio)thiazol-2-yl)-N′-(1-((2R,4R,5R)-3,3-difluoro-4-hydroxy-5-(hydroxymethyl)tetrahydrofuran-2-yl)-2-oxo-1,2-dihydro-pyrimidin-4-yl)malonamide]	4.77				
CC(C)(C)c1cnc(CSc2cnc(NC(=O)CCC(=O)Nc3ccn([C@@H]4O[C@H](CO)[C@@H](O)C4(F)F)c(=O)n3)s2)o1 [GI-03, N-(5-(((5-(t-butyl)oxazol-2-yl)methyl)thio)thiazol-2-yl)-N′-(1-((2R,4R,5R)-3,3-difluoro-4-hydroxy-5-(hydroxymethyl)tetrahydrofuran-2-yl)-2-oxo-1,2-dihydro-pyrimidin-4-yl)succinamide]	6.13				
CC(C)(C)c1cnc(CSc2cnc(NC(=O)CCCC(=O)Nc3ccn([C@@H]4O[C@H](CO)[C@@H](O)C4(F)F)c(=O)n3)s2)o1 [GI-04, N-(5-(((5-(t-butyl)oxazol-2-yl)methyl)thio)thiazol-2-yl)-N′-(1-((2R,4R,5R)-3,3-difluoro-4-hydroxy-5-(hydroxymethyl)tetrahydrofuran-2-yl)-2-oxo-1,2-dihydro-pyrimidin-4-yl)glutaramide]	3.15	60.9%	1008.78 ± 174.29 mm^3	19.9 ± 1.2	
CC(C)(C)c1cnc(CSc2cnc(NC(=O)CCCCC(=O)Nc3ccn([C@@H]4O[C@H](CO)[C@@H](O)C4(F)F)c(=O)n3)s2)o1 [GI-05, N-(5-(((5-(t-butyl)oxazol-2-yl)methyl)thio)thiazol-2-yl)-N′-(1-((2R,4R,5R)-3,3-difluoro-4-hydroxy-5-(hydroxymethyl)tetrahydrofuran-2-yl)-2-oxo-1,2-dihydro-pyrimidin-4-yl)adipamide]	2.46	56.14%	935.14 ± 130.33 mm^3	18.1 ± 1.2	
CC(C)(C)c1cnc(CSc2cnc(NC(=O)CCCCCC(=O)Nc3ccn([C@@H]4O[C@H](CO)[C@@H](O)C4(F)F)c(=O)n3)s2)o1 [GI-06, N-(5-(((5-(t-butyl)oxazol-2-yl)methyl)thio)thiazol-2-yl)-N′-(1-((2R,4R,5R)-3,3-difluoro-4-hydroxy-5-(hydroxymethyl)tetrahydrofuran-2-yl)-2-oxo-1,2-dihydro-pyrimidin-4-yl)pimelamide]	1.38	12% and 12.64%	208.14 ± 80.53⋆ mm^3	18.0 ± 1.5	T/C (%) D22 [3, 5]: 0.46%; Tumor volume (mm^3) D22 [3, 5]: 19.83 ± 35.11^⋆ mm^3; T/C (%) D22 [3, 6]: 39.55%; Tumor volume (mm^3) D22 [3, 6]: 1757.57 ± 1306.74^⋆ mm^3; T/C (%) D22 [3, 7]: 2.11%; Tumor volume (mm^3) D22 [3, 7]: 92.38 ± 159.91^⋆ mm^3; inhibitory activity against MCF-7-ADR proliferation (in words) ([1]; compared with gemcitabine): strongest anti-tumor activity; T/C (%) D15 [2, 8]: 27% and 27.50%; Tumor volume (mm^3) D15 [2, 8]: 45.172 ± 214.92⋆ mm^3; Weight (g) D15 [2, 8]: 17.2 ± 0.8 g; T/C (%) D15 [2, 9]: 13% and 13.09%; Tumor volume (mm^3) D15 [2, 9]: 222.43 ± 113.48⋆ mm^3; Weight (g) D15 [2, 9]: 17.5 ± 1.1 g
CC(C)(C)c1cnc(CSc2cnc(NC(=O)CCCCCCC(=O)Nc3ccn([C@@H]4O[C@H](CO)[C@@H](O)C4(F)F)c(=O)n3)s2)o1 [GI-07, N-(5-(((5-(t-butyl)oxazol-2-yl)methyl)thio)thiazol-2-yl)-N′-(1-((2R,4R,5R)-3,3-difluoro-4-hydroxy-5-(hydroxymethyl)tetrahydrofuran-2-yl)-2-oxo-1,2-dihydro-pyrimidin-4-yl)suberamide]	3.55				
CC(C)(C)c1cnc(CSc2cnc(NC(=O)CCCCCCCC(=O)Nc3ccn([C@@H]4O[C@H](CO)[C@@H](O)C4(F)F)c(=O)n3)s2)o1 [GI-08, N-(5-(((5-(t-butyl)oxazol-2-yl)methyl)thio)thiazol-2-yl)-N′-(1-((2R,4R,5R)-3,3-difluoro-4-hydroxy-5-(hydroxymethyl)tetrahydrofuran-2-yl)-2-oxo-1,2-dihydro-pyrimidin-4-yl)azelamide]	3.29				
CC(C)(C)c1cnc(CSc2cnc(NC(=O)CCCCCCCCC(=O)Nc3ccn([C@@H]4O[C@H](CO)[C@@H](O)C4(F)F)c(=O)n3)s2)o1 [GI-09, N-(5-(((5-(t-butyl)oxazol-2-yl)methyl)thio)thiazol-2-yl)-N′-(1-((2R,4R,5R)-3,3-difluoro-4-hydroxy-5-(hydroxymethyl)tetrahydrofuran-2-yl)-2-oxo-1,2-dihydro-pyrimidin-4-yl)sebacamide]	2.66	43.26%	724.50 ± 158.19 mm^3	18.6 ± 1.4	
Nc1ccn([C@@H]2O[C@H](CO)[C@@H](O)C2(F)F)c(=O)n1 [Gemcitabine hydrochloride, reference compound]					Tumor volume (mm^3) D22 [3, 10]: 59.97 ± 72.33^⋆ mm^3; Tumor volume (mm^3) D15 [2, 11]: 99.90 ± 55.92⋆ mm^3; Weight (g) D15 [2, 11]: 20.0 ± 1.5 g; T/C (%) D15 ([2]; 160 mg/kg intraperitoneal injection, D1 and D4, twice in total, hydrochloride): 5.83%; T/C (%) D15 ([2]; 160 mg/kg intraperitoneal injection, D1 and D4, twice in total, listed as gemcitabine hydrochloride, hydrochloride): 5.8%
Nc1ccn([C@@H]2O[C@H](CO)[C@@H](O)C2(F)F)c(=O)n1 [gemcitabine]	> 10				T/C (%) D22 [3, 10]: 1.32%

Reference: patent US9944670B2, “Gemcitabine derivatives, compositions comprising same and pharmaceutical applications thereof” (HANGZHOU MINSHENG INSTITUTES FOR PHARMA RESEARCH CO., LTD, priority 2013, dated 2018)
